{"source": "paper PMC3293798", "about": "“Amino Acid Residues Contributing to Function of the Heteromeric Insect Olfactory Receptor Complex” (PLoS ONE, 2012)", "assay_type_in_all_cases": "cell-based", "key": {"[1]": {"biological_target": "T1, BmOr-1-BmOrco (Bombyx mori, UniProt Q5WA61)", "T1 construct": "full-length cRNAs from modified pSPUTK vector, co-injected (25 ng each) in Xenopus laevis oocytes; heteromer of unknown stoichiometry; with Odorant receptor coreceptor", "T1 sequence (Q5WA61 1-430)": "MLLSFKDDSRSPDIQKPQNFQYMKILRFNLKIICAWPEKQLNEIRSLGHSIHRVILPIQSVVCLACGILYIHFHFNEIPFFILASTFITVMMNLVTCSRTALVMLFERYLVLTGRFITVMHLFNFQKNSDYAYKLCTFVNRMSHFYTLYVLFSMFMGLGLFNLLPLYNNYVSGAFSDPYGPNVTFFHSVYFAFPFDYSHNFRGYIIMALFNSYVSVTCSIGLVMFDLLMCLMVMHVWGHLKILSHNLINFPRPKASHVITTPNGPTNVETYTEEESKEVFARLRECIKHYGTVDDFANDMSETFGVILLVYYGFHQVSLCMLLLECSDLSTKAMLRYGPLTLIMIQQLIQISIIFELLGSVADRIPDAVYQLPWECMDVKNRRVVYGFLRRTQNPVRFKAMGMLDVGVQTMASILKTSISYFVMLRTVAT", "T1 sequence (Q7YT34 1-472 partner)": "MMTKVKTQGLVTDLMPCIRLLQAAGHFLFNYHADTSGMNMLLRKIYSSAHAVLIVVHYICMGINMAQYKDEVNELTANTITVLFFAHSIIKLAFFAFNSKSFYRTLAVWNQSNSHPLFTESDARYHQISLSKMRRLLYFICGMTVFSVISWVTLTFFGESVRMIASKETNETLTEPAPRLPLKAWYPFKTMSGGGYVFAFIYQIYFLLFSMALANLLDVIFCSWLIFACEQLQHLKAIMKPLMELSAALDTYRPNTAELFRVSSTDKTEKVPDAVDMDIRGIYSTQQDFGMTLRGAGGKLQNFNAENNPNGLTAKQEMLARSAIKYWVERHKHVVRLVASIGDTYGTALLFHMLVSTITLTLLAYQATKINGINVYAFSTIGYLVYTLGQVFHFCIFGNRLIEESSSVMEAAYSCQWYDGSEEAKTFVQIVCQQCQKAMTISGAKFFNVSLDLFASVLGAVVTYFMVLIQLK", "assay": "two-electrode voltage clamp, Xenopus oocytes, dose-response"}, "[2]": {"biological_target": "T2, BmOr-1-BmOrco (Bombyx mori, UniProt Q5WA61, E356C)", "T2 construct": "full-length cRNAs from modified pSPUTK vector, co-injected (25 ng each) in Xenopus laevis oocytes; heteromer of unknown stoichiometry; with Odorant receptor coreceptor", "T2 sequence (Q5WA61 1-430 E356C)": "T1 sequence (Q5WA61 1-430) with E356C", "T2 sequence (Q7YT34 1-472 partner)": "T1 sequence (Q7YT34 1-472 partner)", "assay": "two-electrode voltage clamp, Xenopus oocytes, dose-response"}, "[3]": {"biological_target": "T1, BmOr-1-BmOrco", "assay": "two-electrode voltage clamp, Xenopus oocytes, bombykol response after MTSET", "settings": "covalent; Cys modification of native Cys suggested; 60 s pretreatment; bombykol 1 µM"}, "[4]": {"biological_target": "T3, Or22a with Drosophila Orco (Drosophila melanogaster, UniProt P81909)", "T3 construct": "full-length cRNAs co-injected in Xenopus laevis oocytes; heteromer of unknown stoichiometry; with Odorant receptor coreceptor", "T3 sequence (P81909 1-397)": "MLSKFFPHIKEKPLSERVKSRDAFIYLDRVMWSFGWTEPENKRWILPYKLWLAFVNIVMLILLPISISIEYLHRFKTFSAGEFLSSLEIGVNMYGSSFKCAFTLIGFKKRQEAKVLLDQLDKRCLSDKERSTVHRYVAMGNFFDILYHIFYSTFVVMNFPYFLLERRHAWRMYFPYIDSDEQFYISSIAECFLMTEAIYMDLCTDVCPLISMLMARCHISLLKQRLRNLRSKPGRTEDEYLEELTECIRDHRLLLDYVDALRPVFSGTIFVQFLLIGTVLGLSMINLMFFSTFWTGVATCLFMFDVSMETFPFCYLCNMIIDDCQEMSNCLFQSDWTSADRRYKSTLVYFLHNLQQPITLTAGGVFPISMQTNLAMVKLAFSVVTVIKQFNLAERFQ", "T3 sequence (Q9VNB5 1-486 partner)": "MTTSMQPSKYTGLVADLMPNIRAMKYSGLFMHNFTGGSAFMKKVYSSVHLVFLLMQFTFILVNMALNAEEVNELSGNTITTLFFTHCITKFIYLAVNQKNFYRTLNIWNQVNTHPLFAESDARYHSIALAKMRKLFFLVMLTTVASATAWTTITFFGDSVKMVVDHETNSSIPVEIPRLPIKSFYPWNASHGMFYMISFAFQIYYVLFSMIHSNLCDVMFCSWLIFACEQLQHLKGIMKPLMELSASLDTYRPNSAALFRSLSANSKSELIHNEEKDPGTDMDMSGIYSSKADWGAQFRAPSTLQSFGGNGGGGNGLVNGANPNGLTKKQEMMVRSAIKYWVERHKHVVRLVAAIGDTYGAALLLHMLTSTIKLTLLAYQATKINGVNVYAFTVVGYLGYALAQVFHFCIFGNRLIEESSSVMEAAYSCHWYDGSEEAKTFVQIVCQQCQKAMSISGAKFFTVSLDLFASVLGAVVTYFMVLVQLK", "assay": "two-electrode voltage clamp, Xenopus oocytes, current-voltage curves", "settings": "agonist; 1 mM odorant"}, "[5]": {"biological_target": "T4, Or47a with Drosophila Orco (Drosophila melanogaster, UniProt P81921)", "T4 construct": "full-length cRNAs co-injected in Xenopus laevis oocytes; heteromer of unknown stoichiometry; with Odorant receptor coreceptor", "T4 sequence (P81921 1-385)": "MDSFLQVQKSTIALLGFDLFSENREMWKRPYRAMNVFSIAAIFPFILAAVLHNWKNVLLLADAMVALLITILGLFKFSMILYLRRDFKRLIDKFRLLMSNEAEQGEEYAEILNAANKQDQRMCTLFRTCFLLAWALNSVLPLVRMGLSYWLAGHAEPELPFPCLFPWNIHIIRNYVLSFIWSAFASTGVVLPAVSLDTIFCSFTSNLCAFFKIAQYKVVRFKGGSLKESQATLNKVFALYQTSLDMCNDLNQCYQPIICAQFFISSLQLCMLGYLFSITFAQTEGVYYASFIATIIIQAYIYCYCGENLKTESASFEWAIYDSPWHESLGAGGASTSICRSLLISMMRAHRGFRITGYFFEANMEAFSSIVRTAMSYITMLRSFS", "T4 sequence (Q9VNB5 1-486 partner)": "T3 sequence (Q9VNB5 1-486 partner)", "assay": "two-electrode voltage clamp, Xenopus oocytes, current-voltage curves", "settings": "agonist; 1 mM odorant"}}, "note": "Where a chain is given by its changes, count along the chain named.", "data": [{"smiles": "CCC/C=C\\C=C\\CCCCCCCCCO", "note": "[Bombykol]", "values": [{"measurement": "EC50", "setting": "[1]", "value": 190, "unit": "nM"}, {"measurement": "EC50", "setting": "[2]", "value": 300, "unit": "nM"}]}, {"smiles": "C[N+](C)(C)CCSS(C)(=O)=O", "note": "[MTSET]", "values": [{"measurement": "% reduction of bombykol response at 2.5 mM", "setting": "[3]", "value": 46, "unit": "%"}]}, {"smiles": "CCCC(=O)OCC", "note": "[ethyl butyrate]", "values": [{"measurement": "two-electrode voltage clamp, Xenopus oocytes, current-voltage curves", "setting": "[4]", "value": "channels gated by their cognate ligands (ethyl butyrate, pentyl acetate"}]}, {"smiles": "CCCCCOC(C)=O", "note": "[pentyl acetate]", "values": [{"measurement": "two-electrode voltage clamp, Xenopus oocytes, current-voltage curves", "setting": "[5]", "value": "channels gated by their cognate ligands (ethyl butyrate, pentyl acetate"}]}]}
